According to patent US5229409A, “6-substituted-tetrahydrobenz[cd]indoles” (Eli Lilly and Company, priority 1991, dated 1993):

What was measured:
[1] = tested on: 5-hydroxyindole acetic acid (5HIAA); assay: whole brain 5-hydroxyindoleacetic acid (5HIAA) concentration in vivo in rats; design: species or system rat (male albino)
Method: In another experiment certain compounds of the Examples were evaluated to determine ability to affect the 5-hydroxyindoles serotonin and 5-hydroxyindole acetic acid (5HIAA), and serum corticosterone, in vivo. Male albino rats were injected subcutaneously with an aqueous solution of the compound. The pH of the solution was adjusted as necessary to solubilize the compound. A control of the solution without the test compound was similarly injected into a control animal. […] Trunk blood was collected and allowed to clot. After centrifugation, serum was stored frozen prior to analysis. The whole brain was removed and frozen on dry ice for storage prior to analysis. The serum corticosterone concentration was measured spectrofluorometrically using the procedure of Solem and Brinck-Johnson, "An Evaluation of a Method for Determination of Free Corticosteroids in Minute Quantities of Mouse Plasma", Scand. J. Clin. Lab. Invest., Suppl. 80, p. 1-14 (1965), incorporated herein by reference. 5-Hydroxyindoleacetic acid (5HIAA) concentration in whole brain was measured by liquid chromatography with electrochemical detection as reported by Fuller and Perry, "Effects of Buspirone and its Metabolite, 1-(2-pyrimidinyl)piperazine, on Brain Monoamines and Their Metabolites in Rats", J. Pharmacol. Exp. Ther., 248, p. 50-56 (1989), incorporated herein by reference.

[2] = tested on: serum corticosterone; assay: serum corticosterone concentration in vivo in rats; design: species or system rat (male albino); conditions: 1 hour
Method: In another experiment certain compounds of the Examples were evaluated to determine ability to affect the 5-hydroxyindoles serotonin and 5-hydroxyindole acetic acid (5HIAA), and serum corticosterone, in vivo. Male albino rats were injected subcutaneously with an aqueous solution of the compound. The pH of the solution was adjusted as necessary to solubilize the compound. A control of the solution without the test compound was similarly injected into a control animal. The rats were decapitated one hour later. Trunk blood was collected and allowed to clot. After centrifugation, serum was stored frozen prior to analysis. The whole brain was removed and frozen on dry ice for storage prior to analysis. The serum corticosterone concentration was measured spectrofluorometrically using the procedure of Solem and Brinck-Johnson, "An Evaluation of a Method for Determination of Free Corticosteroids in Minute Quantities of Mouse Plasma", Scand. J. Clin. Lab. Invest., Suppl. 80, p. 1-14 (1965), incorporated herein by reference. 5-Hydroxyindoleacetic acid (5HIAA) concentration in whole brain was measured by liquid chromatography with electrochemical detection as reported by Fuller and Perry, "Effects of Buspirone and its Metabolite, 1-(2-pyrimidinyl)piperazine, on Brain Monoamines and Their Metabolites in Rats", J. Pharmacol. Exp. Ther., 248, p. 50-56 (1989), incorporated herein by reference.

[3] = target: T1, 5-HT1A receptor (Rattus norvegicus, UniProt P19327); assay: [3H]8-OH-DPAT binding to 5-HT1A sites in hippocampal membranes; design: species or system rat (male Sprague-Dawley); conditions: [3H]8-OH-DPAT 1.0 nM, pH 7.4, 37° C
T1 construct: the brains were rapidly chilled and dissected to obtain the hippocampi; from tissue; host or cells: hippocampi of male Sprague-Dawley rats (150-250 g), washed membranes
T1 sequence (P19327 1-422): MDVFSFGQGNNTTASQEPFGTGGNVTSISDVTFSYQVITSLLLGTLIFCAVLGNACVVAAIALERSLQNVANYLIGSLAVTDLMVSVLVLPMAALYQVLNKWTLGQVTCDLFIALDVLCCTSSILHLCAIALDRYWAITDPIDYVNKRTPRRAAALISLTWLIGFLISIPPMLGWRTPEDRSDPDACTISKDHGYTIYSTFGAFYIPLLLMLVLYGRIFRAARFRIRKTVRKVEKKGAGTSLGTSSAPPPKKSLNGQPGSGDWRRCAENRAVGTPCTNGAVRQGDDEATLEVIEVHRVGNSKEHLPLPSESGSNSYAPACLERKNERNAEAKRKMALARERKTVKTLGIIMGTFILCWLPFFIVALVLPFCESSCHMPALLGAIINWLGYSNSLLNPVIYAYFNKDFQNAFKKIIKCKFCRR
Method: The affinities of the compounds at the central […] described by Taylor, et al., (J. Pharmacol. Exp. Ther. 236:118-125, 1986). Membranes for the binding assay were prepared from male Sprague-Dawley rats (150-250 g). The animals were killed by decapitation, and the brains were rapidly chilled and dissected to obtain the hippocampi. The hippocampi were either prepared that day or stored frozen (-70° C.) until the day of preparation. Membranes were prepared by homogenizing the tissue in 40 volumes of ice-cold Tris-HCl buffer (50 mM, pH 7.4 at 22° C.) using a Techmar Tissumizer (setting 65 for 15 sec), and the homogenate was centrifuged at 39800 xg for 10 min. The resulting pellet then resuspended in the same buffer, and the centrifugation and resuspension process was repeated three additional times to wash the membranes. Between the second and third washes the resuspended membranes were incubated for 10 min at 37° C. to facilitate the removal of endogenous ligands. The final pellet was resuspended in 67 mM Tris-HCl, pH 7.4, to a concentration of 2 mg of tissue original wet weight/200 μl. This homogenate was stored frozen (-70° C.) until the day of the binding assay. […] The assay tubes were incubated for 10 min at 37° C, and the contents were then rapidly filtered through GF/B filters (pretreated with 0.5% polyethylenimine), followed by four one-mL washes with ice cold buffer. The radioactivity trapped by the filters was quantitated by liquid scintillation spectrometry, and specific [^3 H]8-OH-DPAT binding to the 5-HT1A sites was defined as the difference between [^3 H]8-OH-DPAT bound in the presence and absence of 10 μM 5-HT.
The affinity of the particular compound at the 5-HT1A receptor is expressed as IC50 value, i.e., the concentration required to inhibit 50% of the binding. The IC50 values were determined from 12-point competition curves using nonlinear regression (SYSTAT, SYSTAT, INC., Evanston, Ill.).

[4] = 0.0003 mg/kg s.c., 1 hour, series 0.0003-0.03 mg/kg
[5] = 0.003 mg/kg s.c., 1 hour, series 0.0003-0.03 mg/kg
[6] = 0.03 mg/kg s.c., 1 hour, series 0.0003-0.03 mg/kg
[7] = 0.03 mg/kg s.c., 1 hour, series 0.03-3 mg/kg
[8] = 0.3 mg/kg s.c., 1 hour, series 0.03-3 mg/kg
[9] = 3 mg/kg s.c., 1 hour, series 0.03-3 mg/kg
[10] = 0.0003 mg/kg s.c., series 0.0003-0.03 mg/kg
[11] = 0.003 mg/kg s.c., series 0.0003-0.03 mg/kg
[12] = 0.03 mg/kg s.c., series 0.0003-0.03 mg/kg
[13] = 0.03 mg/kg s.c., series 0.03-3 mg/kg
[14] = 0.3 mg/kg s.c., series 0.03-3 mg/kg
[15] = 3 mg/kg s.c., series 0.03-3 mg/kg

| SMILES | 5HIAA [1, 4] [nmol/g] | 5HIAA [1, 5] [nmol/g] | 5HIAA [1, 6] [nmol/g] | 5HIAA [1, 7] [nmol/g] | 5HIAA [1, 8] [nmol/g] | 5HIAA [1, 9] [nmol/g] | Serum Corticosterone [2, 10] [microg./100 ml] | Serum Corticosterone [2, 11] [microg./100 ml] | Serum Corticosterone [2, 12] [microg./100 ml] | Serum Corticosterone [2, 13] [microg./100 ml] | Serum Corticosterone [2, 14] [microg./100 ml] | Serum Corticosterone [2, 15] [microg./100 ml] | IC50 [3] [pM] | 5HIAA ([1]; 0.1 mg/kg orally, 5 hrs before sacrifice) [nmol/g] | 5HIAA ([1]; 0.3 mg/kg orally, 5 hrs before sacrifice) [nmol/g] | 5HIAA ([1]; 1 mg/kg orally, 5 hrs before sacrifice) [nmol/g] | 5HIAA ([1]; 3 mg/kg orally, 5 hrs before sacrifice) [nmol/g] |
| --- | --- | --- | --- | --- | --- | --- | --- | --- | --- | --- | --- | --- | --- | --- | --- | --- | --- |
| CCCN(CCC)[C@H]1Cc2c[nH]c3ccc(C(=O)C(C)C)c(c23)C1 [Example 9, (4R)-(+)-6-(2-methylpropanoyl)-4-(di-n-propylamino)-1,3,4,5-tetrahydrobenz[cd]indole] | 2.44 ± 0.06 | 2.23 ± 0.09 | 1.82 ± 0.08 | 1.38 ± 0.02 | 1.22 ± 0.04 | 1.38 ± 0.08 | 4.1 ± 0.5 | 6.0 ± 1.3 | 9.1 ± 1.2 | 7.7 ± 1.8 | 40.8 ± 2.0 | 30.8 ± 4.5 | 160 | – | – | – | – |
| CCCN(CCC)[C@@H]1Cc2c[nH]c3ccc(C(C)=O)c(c23)C1 [Example 8, (4S)-(-)-6-acetyl-4-(di-n-propylamino)-1,3,4,5-tetrahydrobenz[cd]indole] | 1.91 ± 0.08 | 1.47 ± 0.04 | 1.59 ± 0.10 | 1.31 ± 0.06 | 1.36 ± 0.04 | 1.35 ± 0.04 | 3.4 ± 0.2 | 3.8 ± 0.2 | 40.3 ± 1.8 | 47.0 ± 2.4 | 47.3 ± 2.3 | 45.4 ± 1.3 | 120 | 1.67 ± 0.04 | 1.60 ± 0.07 | 1.74 ± 0.05 | 1.31 ± 0.08 |
| CCCN(CCC)C1Cc2c[nH]c3ccc(C(C)=O)c(c23)C1 (racemic) [Example 2, (±)-6-Acetyl-4-(di-n-propylamino)-1,3,4,5-tetrahydrobenz[cd]indole] | 2.21 ± 0.05 | 1.79 ± 0.10 | 1.95 ± 0.04 | 1.27 ± 0.01 | 1.10 ± 0.06 | 2.04 ± 0.02 | 3.8 ± 0.5 | 3.6 ± 0.1 | 36.7 ± 1.2 | 33.4 ± 3.7 | 39.1 ± 1.1 | 13.8 ± 0.6 | 200 | – | – | – | – |
| CCCN(CCC)[C@H]1Cc2c[nH]c3ccc(C(C)=O)c(c23)C1 [Example 7, (4R)-(+)-6-acetyl-4-(di-n-propylamino)-1,3,4,5-tetrahydrobenz[cd]indole] | 1.93 ± 0.07 | 1.80 ± 0.05 | 1.34 ± 0.07 | 1.43 ± 0.02 | 1.37 ± 0.07 | – | 4.1 ± 0.6 | 3.6 ± 0.1 | 21.8 ± 2.1 | 41.8 ± 1.7 | 41.5 ± 5.3 | – | 220 | – | – | – | – |
